In ChEMBL document CHEMBL1201862, “PubChem BioAssay data set” (2004) one finds IC50 data, which are given here for two compounds.

The structures appear in SMILES notation. The source made the active and inactive calls. Cut-off read from the data, not from the text of the source: actives have a measured IC50 and inactives only a lower limit.

In this assay the target is Envelope glycoprotein gp160 (Human immunodeficiency virus 1, UniProt Q6QLK5). The assay is described as follows: cell-free HIV fusion peptide-binding blockers – biochemical, uHTS, fluorescence dequenching, […] (AID 1986).
Sequence of Envelope glycoprotein gp160 (Q6QLK5 whole entry, the tested form may be a part): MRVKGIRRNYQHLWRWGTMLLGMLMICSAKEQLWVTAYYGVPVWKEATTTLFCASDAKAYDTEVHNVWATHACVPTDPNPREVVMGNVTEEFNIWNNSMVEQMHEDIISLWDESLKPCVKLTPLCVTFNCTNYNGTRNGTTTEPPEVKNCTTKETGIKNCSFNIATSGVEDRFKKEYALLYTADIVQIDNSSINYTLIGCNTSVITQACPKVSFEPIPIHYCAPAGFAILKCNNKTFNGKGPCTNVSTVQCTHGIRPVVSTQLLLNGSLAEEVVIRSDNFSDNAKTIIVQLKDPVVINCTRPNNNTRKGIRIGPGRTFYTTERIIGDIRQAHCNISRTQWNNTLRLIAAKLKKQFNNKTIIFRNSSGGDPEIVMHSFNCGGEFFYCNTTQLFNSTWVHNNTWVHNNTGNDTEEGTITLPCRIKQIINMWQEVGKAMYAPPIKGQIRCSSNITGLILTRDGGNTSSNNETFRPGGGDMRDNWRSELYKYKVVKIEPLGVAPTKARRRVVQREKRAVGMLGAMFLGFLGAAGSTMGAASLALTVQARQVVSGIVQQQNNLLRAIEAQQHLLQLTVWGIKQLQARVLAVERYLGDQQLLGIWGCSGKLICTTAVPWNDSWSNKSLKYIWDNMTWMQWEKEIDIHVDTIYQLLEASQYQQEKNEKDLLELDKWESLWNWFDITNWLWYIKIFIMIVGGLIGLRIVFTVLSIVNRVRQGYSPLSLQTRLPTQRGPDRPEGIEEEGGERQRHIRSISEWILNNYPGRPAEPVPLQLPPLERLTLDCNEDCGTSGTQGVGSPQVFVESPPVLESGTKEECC

Usually IC50 stands for the concentration needed to halve the response being measured. In the case of `Cc1ccc(S(=O)(=O)Oc2ccc(/C=C3\C(=N)N4N=C(S(C)(=O)=O)SC4=NC3=O)cc2)cc1`, the 50% inhibitory concentration (IC50) is 16.2 µM (active).
The figure for `CCCCCOc1ccc(C2C(C(=O)c3ccc(C)o3)=C(O)C(=O)N2c2cc(C)on2)cc1` (configuration not stated) is 22.8 µM (active).
